Tested on: Rat and human cortical neurons
Test: Amyloid beta treatment of neurons; phosphotyrosine immunoprecipitation and Western blot with tau antibodies
Type: cell-based
Conditions: neurons treated with Aβ peptide for 1-10 min
Procedure: Rat and human cortical neurons were treated with Aβ peptide (25-35) or reverse Aβ peptide (35-25) for 1-10 min. Proteins containing phosphotyrosine were immunoprecipitated and separated by SDS-PAGE. Western blots of heat-stable extracts of neuronal cultures and immunoprecipitates were probed with antibodies to tau.

Substance: Aβ peptide (25-35) (GSNKGAIIGLM; Amyloid-beta protein 42; UniProt P05067 696-706, looked up, fragment) [amyloid β-peptide fragment 25-35 used to treat rat and human cortical neurons]
- increase in phosphotyrosine in tau relative to basal level: approximately four times the basal level
- tyrosine phosphorylation of neuronal proteins including tau: increased tyrosine phosphorylation
